Measured values taken from the NIST ThermoML archive (doi:10.1016/j.jct.2018.05.012).

Assay: xn = mol fraction of the nth substance listed
Details: 100 kPa, Liquid; for speed of sound: Frequency=3 MHz, Single path-length method; for mass density: Vibrating tube method

C1COCO1 [1,3-dioxolane] + C1COCCO1
Details	mass density, 293.15 K [kg/m3]	mass density, 298.15 K [kg/m3]	mass density, 303.15 K [kg/m3]	mass density, 308.15 K [kg/m3]	speed of sound, 293.15 K [m/s]	speed of sound, 298.15 K [m/s]	speed of sound, 303.15 K [m/s]	speed of sound, 308.15 K [m/s]
x1 = 0.1184	1036.5	1030.8	1025.1	1019.3	1367	1345.1	1323.5	1301.6
x1 = 0.1694	1037.8	1032.1	1026.4	1020.6	1366.7	1344.8	1323.1	1301.2
x1 = 0.2145	1039	1033.3	1027.5	1021.7	1366.4	1344.5	1322.8	1300.8
x1 = 0.2632	1040.4	1034.6	1028.8	1022.9	1366.1	1344.1	1322.4	1300.5
x1 = 0.3154	1041.8	1036.1	1030.2	1024.3	1365.8	1343.8	1322.1	1300.1
x1 = 0.3689	1043.3	1037.6	1031.7	1025.8	1365.5	1343.5	1321.7	1299.7
x1 = 0.4184	1044.8	1039	1033.1	1027.2	1365.2	1343.1	1321.3	1299.4
x1 = 0.4697	1046.3	1040.5	1034.6	1028.6	1364.9	1342.8	1321	1299
x1 = 0.5124	1047.6	1041.8	1035.8	1029.9	1364.6	1342.5	1320.7	1298.7
x1 = 0.5674	1049.4	1043.6	1037.5	1031.5	1364.3	1342.1	1320.3	1298.3
x1 = 0.6282	1051.4	1045.5	1039.5	1033.4	1363.9	1341.7	1319.8	1297.9
x1 = 0.6734	1052.9	1047	1040.9	1034.8	1363.6	1341.4	1319.5	1297.5
x1 = 0.7231	1054.6	1048.7	1042.6	1036.5	1363.3	1341	1319.1	1297.1
x1 = 0.7626	1055.9	1050.1	1043.9	1037.8	1363	1340.7	1318.8	1296.8
x1 = 0.7992	1057.2	1051.4	1045.2	1039	1362.7	1340.4	1318.5	1296.5
x1 = 0.8486	1059	1053.1	1046.9	1040.7	1362.4	1340	1318.1	1296.1
x1 = 0.8815	1060.2	1054.3	1048.1	1041.9	1362.1	1339.8	1317.8	1295.8
x1 = 0.9102	1061.3	1055.4	1049.1	1042.9	1361.9	1339.5	1317.5	1295.5
